In this assay the target is T1, sodium-proton exchanger of subtype 3 (NHE3) (Homo sapiens, UniProt P48764).
T1 construct: expressed in transfected cells
T1 sequence (P48764 26-834): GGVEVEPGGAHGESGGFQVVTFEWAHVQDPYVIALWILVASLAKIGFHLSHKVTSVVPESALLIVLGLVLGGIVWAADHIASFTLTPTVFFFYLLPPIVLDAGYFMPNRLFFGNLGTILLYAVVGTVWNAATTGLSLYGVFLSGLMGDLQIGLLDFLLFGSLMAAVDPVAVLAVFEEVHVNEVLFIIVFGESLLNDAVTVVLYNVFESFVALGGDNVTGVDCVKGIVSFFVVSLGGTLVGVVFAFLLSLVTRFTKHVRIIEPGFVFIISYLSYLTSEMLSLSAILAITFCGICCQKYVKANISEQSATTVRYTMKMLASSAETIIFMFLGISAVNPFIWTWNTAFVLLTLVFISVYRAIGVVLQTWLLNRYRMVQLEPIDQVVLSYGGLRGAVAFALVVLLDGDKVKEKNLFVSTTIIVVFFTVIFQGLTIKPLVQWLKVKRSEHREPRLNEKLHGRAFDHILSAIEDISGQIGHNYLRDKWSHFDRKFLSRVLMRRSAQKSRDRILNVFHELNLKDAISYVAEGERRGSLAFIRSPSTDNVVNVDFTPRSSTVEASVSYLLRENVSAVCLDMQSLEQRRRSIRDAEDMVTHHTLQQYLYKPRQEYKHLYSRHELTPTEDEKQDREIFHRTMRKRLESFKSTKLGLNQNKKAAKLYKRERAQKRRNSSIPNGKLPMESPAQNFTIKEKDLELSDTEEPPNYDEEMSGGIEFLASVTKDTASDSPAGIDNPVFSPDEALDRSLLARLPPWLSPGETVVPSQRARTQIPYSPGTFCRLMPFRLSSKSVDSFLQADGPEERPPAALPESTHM
Kind of assay: Recovery of intracellular pH (pHi) after acidification in LAP1 cells stably expressing NHE3 (BCECF fluorescence, FLIPR). As to conditions: LAP1 cells stably expressing NHE3; pH recovery after acidification; range 1 is % inhibition at 10 μM; read-out: Activity range (inhibitory effect on NHE3). The format is cell-based.

As for `Cc1nnc(C)n1-c1ccc(O[C@H]2c3cc(Cl)cc(Cl)c3C[C@@H]2N2CC[C@@H](O)C2)c(Cl)c1` [Example 122, (R)-1-{trans-(1S,2S)-4,6-dichloro-1-[2-chloro-4-(3,5-dimethyl-[1,2,4]triazol-4-yl)phenoxy]indan-2-yl}pyrrolidin-3-ol], the IC50 was under 1 µM.
Regarding `CC(=O)Nc1cccc(OC2c3ccccc3CC2N2CC[C@@H](O)C2)c1` (mixture of isomers) [Example 681, N-{3-[rac-trans-(1,2)-2-((R)-3-hydroxypyrrolidin-1-yl)indan-1-yloxy]phenyl}acetamide], the IC50 lay within 1 to 10 µM.
The same measure, in the same setting: for `NCCc1c[nH]c2ccc(O[C@H]3c4ccccc4CC[C@@H]3N3CCC[C@H](N)C3)cc12` (racemic) [Example 201, (S)-1-{rac-trans-(1,2)-1-[3-(2-aminoethyl)-1H-indol-5-yloxy]-1,2,3,4-tetrahydronaphthalen-2-yl}piperidin-3-ylamine] the value was 1 to 10 µM.
On the same count and under the same terms, the value for `NCC1CCN([C@@H]2Cc3ccccc3[C@H]2Oc2ccc3[nH]cc(CC(N)=O)c3c2)C1` (mixture of isomers) [Example 386, 2-{5-[rac-trans-(1,2)-2-(3-aminomethylpyrrolidin-1-yl)indan-1-yloxy]-1H-indol-3-yl}acetamide] was 1 to 10 µM.
`COCCc1ccc(O[C@@H]2c3ccccc3C[C@H]2N2CCC(CN)C2)cc1` (mixture of isomers) [Example 598, C-(1-{rac-trans-(1,2)-1-[4-(2-methoxyethyl)phenoxy]indan-2-yl}pyrrolidin-3-yl)methylamine]: the IC50 was in the range of 1 to 10 µM.
As for `N[C@@H]1CCCN([C@H]2CCc3ccccc3[C@@H]2Oc2ccc(F)cc2-c2ccno2)C1` (racemic) [Example 68, (R)-1-[rac-trans-(1,2)-1-(4-fluoro-2-isoxazol-5-ylphenoxy)-1,2,3,4-tetrahydronaphthalen-2-yl]piperidin-3-ylamine], the inhibition at 10 µM lay within 20 to 50%.
Turning to `CC(=O)Nc1cccc(O[C@H]2c3ccccc3C[C@@H]2N2CCCCCC2)c1` (racemic) [Example 636, N-[3-(rac-trans-(1,2)-2-azepan-1-ylindan-1-yloxy)phenyl]acetamide], the IC50 is under 1 µM.
Regarding `N#Cc1c(F)cccc1O[C@H]1c2ccccc2CC[C@@H]1N1CCC[C@@H](N)C1` (racemic) [Example 367, 2-[rac-trans-(1,2)-2-((R)-3-aminopiperidin-1-yl)-1,2,3,4-tetrahydronaphthalen-1-yloxy]-6-fluorobenzonitrile], the inhibition at 10 µM lay in the range of 20 to 50%.
As for `CS(=O)(=O)c1ccc(O[C@H]2c3cc(Cl)cc(Cl)c3C[C@@H]2N2CCCNCC2)c(Cl)c1` [Example 295, 1-[trans-(1S,2S)-4,6-dichloro-1-(2-chloro-4-methanesulfonylphenoxy)indan-2-yl]-[1,4]diazepane], the IC50 was under 1 µM.
`COc1cccc(F)c1O[C@@H]1c2cc(Cl)cc(Cl)c2C[C@H]1N1CCC[C@@H](N)C1` [Example 94, (R)-1-[trans-(1R,2R)-4,6-dichloro-1-(2-fluoro-6-methoxyphenoxy)indan-2-yl]piperidin-3-ylamine]: the inhibition at 10 µM lay in the range of 20 to 50%.
`NS(=O)(=O)c1ccc(O[C@@H]2c3ccccc3C[C@H]2NCC2CCC2)c(F)c1` (racemic) [Example 718, 4-[rac-trans-(1,2)-2-(Cyclobutylmethyl-amino)-indan-1-yloxy]-3-fluoro-benzenesulfonamide]: the IC50 is under 1 µM.
Regarding `N[C@@H]1CCCN([C@H]2CCc3ccccc3[C@@H]2Oc2cccc(-n3cnnn3)c2)C1` (racemic) [Example 60, (R)-1-[rac-trans-(1,2)-1-(3-tetrazol-1-ylphenoxy)-1,2,3,4-tetrahydronaphthalen-2-yl]piperidin-3-ylamine], the IC50 lay in the range of 1 to 10 µM.
In the case of `N#Cc1ccc(O[C@@H]2c3ccccc3C[C@H]2N2CCC(CN)C2)cc1Cl` (mixture of isomers) [Example 540, 4-[rac-trans-(1,2)-2-(3-aminomethylpyrrolidin-1-yl)indan-1-yloxy]-2-chlorobenzonitrile], the IC50 was 1 to 10 µM.
For `CS(=O)(=O)c1ccc(O[C@H]2c3cc(F)ccc3C[C@@H]2N2CCNCC2)cc1` (racemic) [Example 294, 1-[rac-trans-(1,2)-6-fluoro-1-(4-methanesulfonylphenoxy)indan-2-yl]piperazine], the IC50 was in the range of 1 to 10 µM.
For `N[C@@H]1CCCN([C@@H]2Cc3ccccc3[C@H]2Oc2ccc(NC(=O)OCc3ccccc3)cc2)C1` (racemic) [Example 238, {4-[rac-trans-(1,2)-2-((R)-3-aminopiperidin-1-yl)indan-1-yloxy]phenyl}carbamic acid benzyl ester], the IC50 is 1 to 10 µM.
Turning to `Brc1ccccc1O[C@@H]1c2ccccc2C[C@H]1N1C[C@H]2CNC[C@H]2C1` (racemic) [Example 11, 2-[rac-trans-(1,2)-1-(2-bromophenoxy)indan-2-yl]octahydropyrrolo[3,4-c]pyrrole], the IC50 lay within 1 to 10 µM.
With `CN(C)S(=O)(=O)c1cc(Cl)c(O[C@H]2c3ccccc3C[C@@H]2N2CCCC2)c(Cl)c1` (racemic) [Example 403, 3,5-dichloro-N,N-dimethyl-4-(rac-trans-(1,2)-2-pyrrolidin-1-ylindan-1-yloxy)benzenesulfonamide], the IC50 was in the range of 1 to 10 µM.
With `CS(=O)(=O)c1ccc(O[C@H]2c3cc(Cl)cc(Cl)c3C[C@@H]2N2CCC(F)(F)CC2)cc1` [Example 250, 1-[(1S,2S)-4,6-dichloro-1-(4-methanesulfonylphenoxy)indan-2-yl]-4,4-difluoropiperidine], the inhibition at 10 µM was 20 to 50%.
Turning to `N[C@@H]1CCCN([C@H]2CCc3ccccc3[C@@H]2Oc2cccc(Cl)c2)C1` (racemic) [Example 55, (R)-1-[rac-trans-(1,2)-1-(3-chlorophenoxy)-1,2,3,4-tetrahydronaphthalen-2-yl]piperidin-3-ylamine], the inhibition at 10 µM is 20 to 50%.
For the compound `CS(=O)(=O)c1ccc(O[C@H]2c3cc(Cl)cc(Cl)c3C[C@@H]2N2CCN3CCC[C@H]3C2)cc1` [Example 208, (S)-2-[(S)-4-(S)-chloro-6-chloro-1-(4-methanesulfonylphenoxy)indan-2-yl]octahydropyrrolo[1,2-a]pyrazine], the inhibition at 10 µM lay within 20 to 50%.
In the case of `CN(C)C[C@@H]1Cc2ccccc2[C@H]1Oc1ccc(S(C)(=O)=O)cc1` (racemic) [Example 244], the inhibition at 10 µM lay within 20 to 50%.
Still for that read-out and setting: the value for `CN(C)Cc1ccc(O[C@H]2c3ccccc3CC[C@@H]2N2CCC[C@@H](N)C2)cc1` (racemic) [Example 67, (R)-1-[rac-trans-(1,2)-1-(4-dimethylaminomethylphenoxy)-1,2,3,4-tetrahydronaphthalen-2-yl]piperidin-3-ylamine] was 20 to 50%.
`CS(=O)(=O)c1ccc(O[C@H]2c3cc(Cl)cc(Cl)c3C[C@@H]2N2CCCN(CCF)CC2)cc1` [Example 303, 1-[trans-(1S,2S)-4,6-dichloro-1-(4-methanesulfonylphenoxy)indan-2-yl]-4-(2-fluoroethyl)-[1,4]diazepane]: the IC50 is under 1 µM.
Take `CN(C1CCCNC1)[C@@H]1Cc2ccccc2[C@H]1Oc1ccc(S(N)(=O)=O)c(Cl)c1Cl` (mixture of isomers) [Example 360, 2,3-dichloro-4-[rac-trans-(1,2)-2-(methylpiperidin-3-ylamino)indan-1-yloxy]benzenesulfonamide]: the IC50 was 1 to 10 µM.
On the same count and under the same terms, the value for `N#Cc1ccc(O[C@H]2c3ccccc3CC[C@@H]2N2CCC[C@H](N)C2)c(F)c1` (racemic) [Example 533, 4-[rac-trans-(1,2)-2-((S)-3-aminopiperidin-1-yl)-1,2,3,4-tetrahydronaphthalen-1-yloxy]-3-fluorobenzonitrile] was under 1 µM.
As to `N#Cc1cc(Cl)ccc1O[C@H]1c2ccccc2CC[C@@H]1N1CCOCC1` (racemic) [Example 585, 5-chloro-2-(rac-trans-(1,2)-2-morpholin-4-yl-1,2,3,4-tetrahydronaphthalen-1-yloxy)benzonitrile], the inhibition at 10 µM fell in the range of 20 to 50%.
Consider `CS(=O)(=O)c1ccccc1O[C@H]1c2ccccc2CC[C@@H]1N1CCC[C@H](N)C1` (racemic) [Example 156, (S)-1-[rac-trans-(1,2)-1-(2-methanesulfonylphenoxy)-1,2,3,4-tetrahydronaphthalen-2-yl]piperidin-3-ylamine], for which the inhibition at 10 µM is 20 to 50%.
Regarding `Fc1ccc(O[C@H]2c3cc(Cl)cc(Cl)c3C[C@@H]2N2CCC2)c2ncccc12` [Example 591, 8-((1S,2S)-2-azetidin-1-yl-4,6-dichloroindan-1-yloxy)-5-fluoroquinoline], the inhibition at 10 µM was in the range of 20 to 50%.
Turning to `N[C@H]1CCCN([C@H]2CCc3ccccc3[C@@H]2Oc2ccncc2)C1` (racemic) [Example 191, (S)-1-[rac-trans-(1,2)-1-(pyridin-4-yloxy)-1,2,3,4-tetrahydronaphthalen-2-yl]piperidin-3-ylamine], the inhibition at 10 µM is 20 to 50%.
As for `Cc1cccc2c1C[C@H](N1CCCC1)[C@H]2Oc1ccc(S(N)(=O)=O)cc1` (racemic) [Example 472, 4-(rac-trans-(1,2)-4-methyl-2-pyrrolidin-1-ylindan-1-yloxy)benzenesulfonamide], the IC50 lay in the range of 1 to 10 µM.

The values are drawn from US8822449B2, “Substituted aminoindanes and analogs thereof, and the pharmaceutical use thereof” (Sanofi, priority 2008, dated 2014).
